# Assays:
# S. saprophyticus = assay: MIC in Nutrient Agar; format: cell-based, Staphylococcus saprophyticus; settings: Nutrient Agar containing 0.1 μg/ml of inducer; 37° C., 24 hours
# Protocol: (§1) The triclosan-glycosides were added to Nutrient Agar (Oxoid CM0003; Thermofisher Scientific) and organisms were transferred onto the plates surface using a multi-point inoculation device (Oxoid Cathra, Thermofisher Scientific). The latter is essentially a metal plate containing a number of needles. Each needle tip (usually 36 per plate) dips into an organism suspension (in phosphate buffered saline; PBS) and the needles are then moved over the agar plate and lowered onto its surface. In this way the growth of colonies of up to 36 different organisms can be observed on one plate.
# (§2) Nutrient Agar No. 2 was prepared according to the manufacturers instructions, autoclaved and cooled to 50° C. Test compounds were then added as filter sterilised solutions (50:50 deionised water:ethanol), to give final concentrations from 256 μg/ml to 0 μg/ml in doubling dilutions. […] The mixtures were swirled then four plates (25 ml molten agar) were poured for each concentration. Plates were dried in a laminar flow cabinet then inoculated with overnight cultures of organisms that had been decimally diluted twice in sterile saline solution (approximately 10^7 cfu/ml) using a multi-point inoculator. Plates were then incubated at 37° C. for 24 hours. MICs were determined as the concentration at which no growth was observed.
# Ent. cloacae = assay: MIC in Nutrient Agar; format: cell-based, Enterobacter cloacae; settings: Nutrient Agar containing 0.1 μg/ml of inducer; 37° C., 24 hours
# Protocol: as §1, §2
# Aer. hydrophila = assay: MIC in Nutrient Agar; format: cell-based, Aeromonas hydrophila; settings: Nutrient Agar containing 0.1 μg/ml of inducer; 37° C., 24 hours
# Protocol: as §1, §2
# Ent. faecium = assay: MIC in Nutrient Agar; format: cell-based, Enterococcus faecium; settings: Nutrient Agar containing 0.1 μg/ml of inducer; 37° C., 24 hours
# Protocol: as §1, §2
# Hafnia alvei = assay: MIC in Nutrient Agar; format: cell-based; settings: Nutrient Agar containing 0.1 μg/ml of inducer; 37° C., 24 hours
# Protocol: as §1, §2
# Salmonella [1] = assay: MIC in Nutrient Agar; format: cell-based; settings: 11 strains; Nutrient Agar containing 0.1 μg/ml of inducer; 37° C., 24 hours
# Protocol: as §1, §2
# Bacillus cereus = assay: MIC in Nutrient Agar; format: cell-based; settings: Nutrient Agar containing 0.1 μg/ml of inducer; 37° C., 24 hours
# Protocol: as §1, §2
# Ps. aeruginosa = assay: MIC in Nutrient Agar; format: cell-based; settings: Nutrient Agar containing 0.1 μg/ml of inducer; 37° C., 24 hours
# Protocol: as §1, §2
# Bacillus subtilis = assay: MIC in Nutrient Agar; format: cell-based; settings: Nutrient Agar containing 0.1 μg/ml of inducer; 37° C., 24 hours
# Protocol: as §1, §2
# Hafnia alvei ATCC 13337 = assay: MIC in Nutrient Broth No. 2; format: cell-based; settings: Nutrient Broth No. 2
# Protocol: (§3) Bacteria species as indicated in Table 1 were incubated for approximately 24 hours at 37° C.
# (§4) The tests were repeated with the addition of inducers. Methyl glycoside was the main inducer used, but other suitable inducers include isopropyl-β-D-thiogalactopyranoside, p-nitrophenyl-α-L-arabinopyranoside and p-nitrophenyl-β-D-xylopyranoside. Concentration of inducer in all cases was 100 μg/ml.
# [2] = test system: Enterococcus faecium ATCC 19434; assay: MIC in Nutrient Broth No. 2; format: cell-based; settings: Nutrient Broth No. 2
# Protocol: as §3, §4
# [3] = test system: Ps. Aeruginosa ATCC 27853; assay: MIC in Nutrient Broth No. 2; format: cell-based; settings: Nutrient Broth No. 2
# Protocol: as §3, §4
# [4] = test system: Enterococcus faecalis ATCC 29212; assay: MIC in Nutrient Broth No. 2; format: cell-based; settings: Nutrient Broth No. 2
# Protocol: as §3, §4
# [5] = test system: Aeromonas hydrophila OCC 778; assay: MIC in Nutrient Broth No. 2; format: cell-based; settings: Nutrient Broth No. 2
# Protocol: as §3, §4
# Salmonella [6] = assay: MIC in Nutrient Broth No. 2; format: cell-based; settings: 11 strains, Nutrient Broth No. 2
# Protocol: as §3, §4
# [7] = test system: Proteus mirabilis ATCC 12453; assay: MIC in Nutrient Broth No. 2; format: cell-based; settings: Nutrient Broth No. 2
# Protocol: as §3, §4
# [8] = test system: Serratia marcescens OCC 217; assay: MIC in Nutrient Broth No. 2; format: cell-based; settings: Nutrient Broth No. 2
# Protocol: as §3, §4
# [9] = test system: Citrobacter freundii OCC 851; assay: MIC in Nutrient Broth No. 2; format: cell-based; settings: Nutrient Broth No. 2
# Protocol: as §3, §4
# [10] = test system: Bacillus cereus ATCC 14579; assay: MIC in Nutrient Broth No. 2; format: cell-based; settings: Nutrient Broth No. 2
# Protocol: as §3, §4
# [11] = test system: Bacillus subtilis NCTC 10073; assay: MIC in Nutrient Broth No. 2; format: cell-based; settings: Nutrient Broth No. 2
# Protocol: as §3, §4
# [12] = test system: Enterobacter aerogenes ATCC 13048; assay: MIC in Nutrient Broth No. 2; format: cell-based; settings: Nutrient Broth No. 2
# Protocol: as §3, §4
# Escherichia coli = assay: MIC in Nutrient Broth No. 2; format: cell-based; settings: 8 strains, Nutrient Broth No. 2
# Protocol: as §3, §4
# Proteus vulgaris OCC 195 = assay: MIC in Nutrient Broth No. 2; format: cell-based; settings: Nutrient Broth No. 2
# Protocol: as §3, §4
# [13] = test system: Kleb. aerogenes NCTC 88167; assay: MIC in Nutrient Broth No. 2; format: cell-based, Klebsiella aerogenes; settings: Nutrient Broth No. 2
# Protocol: as §3, §4
# [14] = test system: Crono. sakazakii ATCC 29544; assay: MIC in Nutrient Broth No. 2; format: cell-based, Cronobacter sakazakii; settings: Nutrient Broth No. 2
# Protocol: as §3, §4
# S. epidermidis = assay: MIC in Nutrient Agar; format: cell-based, Staphylococcus epidermidis; settings: 3 strains; Nutrient Agar containing 0.1 μg/ml of inducer; 37° C., 24 hours
# Protocol: as §1, §2
# [15] = test system: Strep. pneumoniae ATCC 6305; assay: MIC in Nutrient Broth No. 2; format: cell-based, Streptococcus pneumoniae; settings: Nutrient Broth No. 2
# Protocol: as §3, §4
# Strep. viridans OCC 234 = assay: MIC in Nutrient Broth No. 2; format: cell-based, Streptococcus viridans; settings: Nutrient Broth No. 2
# Protocol: as §3, §4
# Staph. aureus = assay: MIC in Nutrient Broth No. 2; format: cell-based, Staphylococcus aureus; settings: 8 strains, Nutrient Broth No. 2
# Protocol: as §3, §4
# Staph. epidermidis = assay: MIC in Nutrient Broth No. 2; format: cell-based, Staphylococcus epidermidis; settings: 3 strains, Nutrient Broth No. 2
# Protocol: as §3, §4
# [16] = test system: Staph. haemolyticus OCC 2223; assay: MIC in Nutrient Broth No. 2; format: cell-based, Staphylococcus haemolyticus; settings: Nutrient Broth No. 2
# Protocol: as §3, §4
# C. freundii = assay: MIC in Nutrient Agar; format: cell-based, Citrobacter freundii; settings: Nutrient Agar containing 0.1 μg/ml of inducer; 37° C., 24 hours
# Protocol: as §1, §2
smiles,measurement,setting,value
"O[C@@H]1[C@H](Oc2cc(Cl)ccc2Oc2ccc(Cl)cc2Cl)OC[C@@H](O)[C@H]1O [β-D-Arabinoside, triclosan-β-D-arabinopyranoside]",MIC,S. saprophyticus,64 µg/mL
same,MIC,Ent. cloacae,16 µg/mL
same,MIC,Aer. hydrophila,256 µg/mL
same,MIC,Ent. faecium,256 µg/mL
same,MIC,Hafnia alvei,8 µg/mL
same,MIC,Salmonella [1],32 to 64 µg/mL
same,MIC,Bacillus cereus,256 µg/mL
same,MIC,Ps. aeruginosa,>256 µg/mL
same,MIC,Bacillus subtilis,256 µg/mL
same,MIC,Hafnia alvei ATCC 13337; with inducer 100 μg/ml,4 µg/mL
same,MIC,Hafnia alvei ATCC 13337; without inducer,4 µg/mL
same,MIC,[2]; with inducer 100 μg/ml,256 µg/mL
same,MIC,[2]; without inducer,256 µg/mL
same,MIC,[3]; with inducer 100 μg/ml,>256 µg/mL
same,MIC,[3]; without inducer,>256 µg/mL
same,MIC,[4]; with inducer 100 μg/ml,256 µg/mL
same,MIC,[4]; without inducer,256 µg/mL
same,MIC,[5]; with inducer 100 μg/ml,>256 µg/mL
same,MIC,[5]; without inducer,>256 µg/mL
same,MIC,Salmonella [6]; with inducer 100 μg/ml,32 to 64 µg/mL
same,MIC,Salmonella [6]; without inducer,32 to 64 µg/mL
same,MIC,[7]; with inducer 100 μg/ml,16 µg/mL
same,MIC,[7]; without inducer,32 µg/mL
same,MIC,[8]; with inducer 100 μg/ml,>256 µg/mL
same,MIC,[8]; without inducer,>256 µg/mL
same,MIC,[9]; with inducer 100 μg/ml,64 µg/mL
same,MIC,[9]; without inducer,64 µg/mL
same,MIC,[10]; with inducer 100 μg/ml,128 µg/mL
same,MIC,[10]; without inducer,128 µg/mL
same,MIC,[11]; with inducer 100 μg/ml,128 µg/mL
same,MIC,[11]; without inducer,128 µg/mL
same,MIC,[12]; with inducer 100 μg/ml,64 µg/mL
same,MIC,[12]; without inducer,128 µg/mL
same,MIC,Escherichia coli; with inducer 100 μg/ml,4 to 32 µg/mL
same,MIC,Escherichia coli; without inducer,8 to 32 µg/mL
same,MIC,Proteus vulgaris OCC 195; with inducer 100 μg/ml,64 µg/mL
same,MIC,Proteus vulgaris OCC 195; without inducer,128 µg/mL
same,MIC,[13]; with inducer 100 μg/ml,32 µg/mL
same,MIC,[13]; without inducer,32 µg/mL
same,MIC,[14]; with inducer 100 μg/ml,64 µg/mL
same,MIC,[14]; without inducer,128 µg/mL
same,MIC,S. epidermidis,16 µg/mL
same,MIC,[15]; with inducer 100 μg/ml,64 µg/mL
same,MIC,[15]; without inducer,64 µg/mL
same,MIC,Strep. viridans OCC 234; with inducer 100 μg/ml,128 µg/mL
same,MIC,Strep. viridans OCC 234; without inducer,128 µg/mL
same,MIC,Staph. aureus; with inducer 100 μg/ml,4 to 8 µg/mL
same,MIC,Staph. aureus; without inducer,4 to 8 µg/mL
same,MIC,Staph. epidermidis; with inducer 100 μg/ml,4 to 64 µg/mL
same,MIC,Staph. epidermidis; without inducer,8 to 16 µg/mL
same,MIC,[16]; with inducer 100 μg/ml,16 µg/mL
same,MIC,[16]; without inducer,128 µg/mL
same,MIC,C. freundii,64 µg/mL
"OC[C@H]1O[C@@H](Oc2cc(Cl)ccc2Oc2ccc(Cl)cc2Cl)[C@H](O)[C@@H](O)[C@@H]1O [β-D-Glucoside, triclosan-β-D-glucopyranoside]",MIC,S. saprophyticus,32 µg/mL
same,MIC,Ent. cloacae,16 µg/mL
same,MIC,Aer. hydrophila,>256 µg/mL
same,MIC,Ent. faecium,>256 µg/mL
same,MIC,Hafnia alvei,8 µg/mL
same,MIC,Salmonella [1],16 to 128 µg/mL
same,MIC,Bacillus cereus,256 µg/mL
same,MIC,Ps. aeruginosa,>256 µg/mL
same,MIC,Bacillus subtilis,256 µg/mL
same,MIC,Hafnia alvei ATCC 13337; with inducer 100 μg/ml,0.5 µg/mL
same,MIC,Hafnia alvei ATCC 13337; without inducer,4 µg/mL
same,MIC,[2]; with inducer 100 μg/ml,256 µg/mL
same,MIC,[2]; without inducer,>256 µg/mL
same,MIC,[3]; with inducer 100 μg/ml,>256 µg/mL
same,MIC,[3]; without inducer,>256 µg/mL
same,MIC,[4]; with inducer 100 μg/ml,128 µg/mL
same,MIC,[4]; without inducer,16 µg/mL
same,MIC,[5]; with inducer 100 μg/ml,256 µg/mL
same,MIC,[5]; without inducer,>256 µg/mL
same,MIC,Salmonella [6]; with inducer 100 μg/ml,2 to 8 µg/mL
same,MIC,[7]; with inducer 100 μg/ml,2 µg/mL
same,MIC,[7]; without inducer,16 µg/mL
same,MIC,[8]; with inducer 100 μg/ml,>256 µg/mL
same,MIC,[8]; without inducer,>256 µg/mL
same,MIC,[9]; with inducer 100 μg/ml,8 µg/mL
same,MIC,[9]; without inducer,64 µg/mL
same,MIC,[10]; with inducer 100 μg/ml,128 µg/mL
same,MIC,[10]; without inducer,256 µg/mL
same,MIC,[11]; with inducer 100 μg/ml,32 µg/mL
same,MIC,[11]; without inducer,256 µg/mL
same,MIC,[12]; with inducer 100 μg/ml,16 µg/mL
same,MIC,[12]; without inducer,64 µg/mL
same,MIC,Escherichia coli; with inducer 100 μg/ml,1 to 8 µg/mL
same,MIC,Escherichia coli; without inducer,8 to 64 µg/mL
same,MIC,Proteus vulgaris OCC 195; with inducer 100 μg/ml,8 µg/mL
same,MIC,Proteus vulgaris OCC 195; without inducer,64 µg/mL
same,MIC,[13]; with inducer 100 μg/ml,4 µg/mL
same,MIC,[13]; without inducer,32 µg/mL
same,MIC,[14]; with inducer 100 μg/ml,8 µg/mL
same,MIC,[14]; without inducer,64 µg/mL
same,MIC,S. epidermidis,8 to 16 µg/mL
same,MIC,[15]; with inducer 100 μg/ml,64 µg/mL
same,MIC,[15]; without inducer,128 µg/mL
same,MIC,Strep. viridans OCC 234; with inducer 100 μg/ml,128 µg/mL
same,MIC,Strep. viridans OCC 234; without inducer,256 µg/mL
same,MIC,Staph. aureus; with inducer 100 μg/ml,0.5 to 2 µg/mL
same,MIC,Staph. aureus; without inducer,4 to 8 µg/mL
same,MIC,Staph. epidermidis; with inducer 100 μg/ml,0.5 to 1 µg/mL
same,MIC,Staph. epidermidis; without inducer,8 to 16 µg/mL
same,MIC,[16]; with inducer 100 μg/ml,0.5 µg/mL
same,MIC,[16]; without inducer,16 µg/mL
same,MIC,C. freundii,64 µg/mL
